Test results as given in publication PMC3541985, “Improvement of Catalytic Efficiency, Thermo-stability and Dye Decolorization Capability of Pleurotus ostreatus IBL-02 laccase by Hydrophobic Sol Gel Entrapment” (Chemistry Central Journal, 2012).

Tested on: T1, P. ostreatus IBL-02 laccase
T1 construct: gene pox2
Conditions: free (not immobilised) enzyme; ABTS varied 0.1-1 mM, so the printed unit mM is doubtful; standard assay malonate buffer pH 4.5, 25°C

CCn1c(=NN=c2sc3cc(S(=O)(=O)O)ccc3n2CC)sc2cc(S(=O)(=O)O)ccc21 [ABTS, 2, 2′-azino-bis-3-ethylbenzothiazoline-6-sulfonic acid]
Km: 33 mM
